The values below are quoted from earlier work in US9555001B2, “Pharmaceutical composition and uses thereof” (Boehringer Ingelheim International GmbH, priority 2012, dated 2017).

The structures appear in SMILES notation.

For the series the following is noted: crystalline form described in WO 2006/117359.

Consider `OC[C@H]1O[C@@H](c2ccc(Cl)c(Cc3ccc(O[C@H]4CCOC4)cc3)c2)[C@H](O)[C@@H](O)[C@@H]1O` [Compound “A”, 1-chloro-4-(β-D-glucopyranos-1-yl)-2-[4-((S)-tetrahydrofuran-3-yloxy)-benzyl]-benzene], for which the physico-chemical stability result was “physico-chemically stable” and the solubility entry is on record as “good solubility properties”.
